These results are taken from patent publication US10570129B2 (Zoetis Services LLC, priority 2015, dated 2020).

Molecules are shown by their SMILES.

One assay has as its system D. immitis microfilariae. Nature of the assay: Dirofilaria immitis, microfilariae (DiMF) in vitro motility assay. The assay is classed as cell-based. The note with it: Dirofilaria immitis, 72 h, read-out: DiMF minimally effective dose (MEC).
Assay [1] deals with Trichostrongylus colubriformis. Description: Jird efficacy model. The assay is classed as in vivo. The note with it: Trichostrongylus colubriformis, sc, 96 h, read-out: Jird % (percentage efficacy).
Another assay has as its system Haemonchus contortus L3. Nature of the assay: microbe, parasite or virus in culture. The note with it: Haemonchus contortus, 96 h, read-out: HcL3 Minimal Effective Concentration (MEC). The assay is classed as cell-based.

Regarding `O=C(NCc1ccnc(F)c1)n1c2c(c3ccc(C(F)(F)F)cc31)CN(C/C=C/c1ccc(Cl)c(F)c1)CC2` [Example 163, (E)-2-(3-(4-chloro-3-fluorophenyl)allyl)-N-((2-fluoropyridin-4-yl)methyl)-7-(trifluoromethyl)-1,2,3,4-tetrahydro-5H-pyrido[4,3-b]indole-5-carboxamide], the results for the minimal effective concentration in the assay with D. immitis microfilariae and in the assay with Haemonchus contortus L3 were 5.7 µM and 1.8 µM, respectively. Also, the inhibition in vivo at 10 mg/kg in assay [1] came to 100%.
For `N#Cc1ccc(/C=C/CN2CCc3c(c4ccc(C(F)(F)F)cc4n3C(=O)NCc3ccnc(F)c3)C2)cc1` [Example 164, (E)-2-(3-(4-cyanophenyl)allyl)-N-((2-fluoropyridin-4-yl)methyl)-7-(trifluoromethyl)-1,2,3,4-tetrahydro-5H-pyrido[4,3-b]indole-5-carboxamide] the same measures were 10 µM, 3.3 µM and 100%.
On the same counts, the results for `O=C(NCc1ccnc(F)c1)n1c2c(c3ccc(C(F)(F)F)cc31)CN(C/C=C/c1ccc(Cl)cc1)CC2` [Example 165, (E)-2-(3-(4-chlorophenyl)allyl)-N-((2-fluoropyridin-4-yl)methyl)-7-(trifluoromethyl)-1,2,3,4-tetrahydro-5H-pyrido[4,3-b]indole-5-carboxamide] are 3.3 µM, 3.3 µM and 100%.
Turning to `N#Cc1ccc(/C=C/CN2CCc3c(c4cc(Br)ccc4n3C(=O)NCc3ccnc(Cl)c3)C2)cc1` [Example 184, (E)-8-bromo-N-((2-chloropyridin-4-yl)methyl)-2-(3-(4-cyanophenyl)allyl)-1,2,3,4-tetrahydro-5H-pyrido[4,3-b]indole-5-carboxamide], the minimal effective concentration in the assay with D. immitis microfilariae amounted to 57.4 µM; with Haemonchus contortus L3 it was 1 µM. For the same compound, the inhibition in vivo at 10 mg/kg in assay [1] is 100%.
Consider `O=C(NCc1ccnc(Cl)c1)n1c2c(c3cc(Br)ccc31)CN(C/C=C/c1ccc(Cl)cc1)CC2` [Example 185, (E)-8-bromo-2-(3-(4-chlorophenyl)allyl)-N-((2-chloropyridin-4-yl)methyl)-1,2,3,4-tetrahydro-5H-pyrido[4,3-b]indole-5-carboxamide], for which the minimal effective concentration was 7.7 µM with D. immitis microfilariae and 0.7 µM in the assay on Haemonchus contortus L3. Also, the inhibition in vivo at 10 mg/kg in assay [1] worked out at 100%.
`O=C(NCc1ccnc(Cl)c1)n1c2c(c3ccc(Cl)cc31)CN(C/C=C/c1ccc(F)c(F)c1)CC2` [Example 211, (E)-7-chloro-N-((2-chloropyridin-4-yl)methyl)-2-(3-(3,4-difluorophenyl)allyl)-1,2,3,4-tetrahydro-5H-pyrido[4,3-b]indole-5-carboxamide]: the minimal effective concentration amounted to 10 µM in the assay on D. immitis microfilariae and 1 µM with Haemonchus contortus L3. Besides, in assay [1], the inhibition in vivo at 10 mg/kg turned out to be 100%.
On the same counts, the results for `O=C(NCc1ccnc(F)c1)n1c2c(c3ccc(Cl)cc31)CN(C/C=C/c1ccc(F)c(F)c1)CC2` [Example 228, (E)-7-chloro-2-(3-(3,4-difluorophenyl)allyl)-N-((2-fluoropyridin-4-yl)methyl)-1,2,3,4-tetrahydro-5H-pyrido[4,3-b]indole-5-carboxamide] are 3.3 µM, 1.8 µM and 98%.
Turning to `O=C(NCc1ccnc(F)c1)n1c2c(c3ccc(Cl)cc31)CN(C/C=C/c1ccc(Cl)cc1)CC2` [Example 229, (E)-7-chloro-2-(3-(4-chlorophenyl)allyl)-N-((2-fluoropyridin-4-yl)methyl)-1,2,3,4-tetrahydro-5H-pyrido[4,3-b]indole-5-carboxamide], the minimal effective concentration with D. immitis microfilariae was 10 µM; in the assay with Haemonchus contortus L3, 3.3 µM. Also, the inhibition in vivo at 10 mg/kg in assay [1] came out at 100%.
On the same counts, the results for `O=C(NCc1ccnc(F)c1)n1c2c(c3c(Cl)cccc31)CN(C/C=C/c1ccc(Cl)cc1)CC2` [Example 230, (E)-9-chloro-2-(3-(4-chlorophenyl)allyl)-N-((2-fluoropyridin-4-yl)methyl)-1,2,3,4-tetrahydro-5H-pyrido[4,3-b]indole-5-carboxamide] are 10 µM, 1.8 µM and 100%.
With `O=C(NCc1ccnc(Cl)c1)n1c2c(c3cc(Cl)ccc31)CN(C/C=C/c1ccc(F)cc1F)CC2` [Example 238, (E)-8-chloro-N-((2-chloropyridin-4-yl)methyl)-2-(3-(2,4-difluorophenyl)allyl)-1,2,3,4-tetrahydro-5H-pyrido[4,3-b]indole-5-carboxamide], the minimal effective concentration in the assay on D. immitis microfilariae came out at 5.7 µM; with Haemonchus contortus L3, 1 µM. The inhibition in vivo at 10 mg/kg in assay [1] stood at 100%.
Consider `O=C(NCc1ccnc(Cl)c1)n1c2c(c3cc(Cl)ccc31)CN(C/C=C/c1ccc(F)c(Cl)c1)CC2` [Example 239, (E)-8-chloro-2-(3-(3-chloro-4-fluorophenyl)allyl)-N-((2-chloropyridin-4-yl)methyl)-1,2,3,4-tetrahydro-5H-pyrido[4,3-b]indole-5-carboxamide], for which the figures for the minimal effective concentration in the assay on D. immitis microfilariae and in the assay with Haemonchus contortus L3 were 3.3 µM and 0.3 µM, respectively. Further, in assay [1], the inhibition in vivo at 10 mg/kg amounted to 98%.
On the same counts, the results for `O=C(NCc1ccnc(Cl)c1)n1c2c(c3cc(Cl)ccc31)CN(C/C=C/c1ccc(F)c(F)c1)CC2` [Example 240, (E)-8-chloro-N-((2-chloropyridin-4-yl)methyl)-2-(3-(3,4-difluorophenyl)allyl)-1,2,3,4-tetrahydro-5H-pyrido[4,3-b]indole-5-carboxamide] are 3.3 µM, 0.2 µM and 98%.
For `O=C(NCc1ccnc(Cl)c1)n1c2c(c3cc(Cl)c(Cl)cc31)CN(C/C=C/c1ccc(F)cc1)CC2` [Example 282, (E)-7,8-dichloro-N-((2-chloropyridin-4-yl)methyl)-2-(3-(4-fluorophenyl)allyl)-1,2,3,4-tetrahydro-5H-pyrido[4,3-b]indole-5-carboxamide] the same measures were 3.3 µM, 0.3 µM and 100%.
For `O=C(NCc1ccnc(Cl)c1)n1c2c(c3cc(F)c(Cl)cc31)CN(C/C=C/c1ccc(F)cc1)CC2` [Example 306, (E)-7-chloro-N-((2-chloropyridin-4-yl)methyl)-8-fluoro-2-(3-(4-fluorophenyl)allyl)-1,2,3,4-tetrahydro-5H-pyrido[4,3-b]indole-5-carboxamide] the same measures were 12.7 µM, 0.5 µM and 98%.
With `O=C(NCc1ccnc(Cl)c1)n1c2c(c3c(Cl)c(F)ccc31)CN(C/C=C/c1ccc(F)cc1)CC2` [Example 307, (E)-9-chloro-N-((2-chloropyridin-4-yl)methyl)-8-fluoro-2-(3-(4-fluorophenyl)allyl)-1,2,3,4-tetrahydro-5H-pyrido[4,3-b]indole-5-carboxamide], the values for the minimal effective concentration in the assay with D. immitis microfilariae and in the assay on Haemonchus contortus L3 were 3.3 µM and 0.5 µM, respectively. Also, in assay [1], the inhibition in vivo at 10 mg/kg was found to be 100%.
For `O=C(NCc1ccnc(F)c1)n1c2c(c3cc(F)c(Cl)cc31)CN(C/C=C/c1ccc(F)c(F)c1)CC2` [Example 314, (E)-7-chloro-2-(3-(3,4-difluorophenyl)allyl)-8-fluoro-N-((2-fluoropyridin-4-yl)methyl)-1,2,3,4-tetrahydro-5H-pyrido[4,3-b]indole-5-carboxamide] the same measures were 3.3 µM, 1 µM and 100%.
As to `O=C(NCc1ccnc(F)c1)n1c2c(c3cc(F)c(Cl)cc31)CN(C/C=C/c1ccc(Cl)cc1)CC2` [Example 317, (E)-7-chloro-2-(3-(4-chlorophenyl)allyl)-8-fluoro-N-((2-fluoropyridin-4-yl)methyl)-1,2,3,4-tetrahydro-5H-pyrido[4,3-b]indole-5-carboxamide], the values for the minimal effective concentration in the assay with D. immitis microfilariae and with Haemonchus contortus L3 were 18.2 µM and 1 µM, respectively. Further, in assay [1], the inhibition in vivo at 10 mg/kg was determined as 100%.
As to `N#Cc1ccc(/C=C/CN2CCc3c(c4c(F)cc(C(F)(F)F)cc4n3C(=O)NCc3ccnc(Cl)c3)C2)cc1` [Example 321, (E)-N-((2-chloropyridin-4-yl)methyl)-2-(3-(4-cyanophenyl)allyl)-9-fluoro-7-(trifluoromethyl)-1,2,3,4-tetrahydro-5H-pyrido[4,3-b]indole-5-carboxamide], the minimal effective concentration is 5.7 µM in the assay with D. immitis microfilariae and 2.4 µM in the assay with Haemonchus contortus L3. For the same compound, in assay [1], the inhibition in vivo at 10 mg/kg was found to be 100%.
For `N#Cc1cc(/C=C/CN2CCc3c(c4ccc(OC(F)(F)F)cc4n3C(=O)NCc3ccnc(Cl)c3)C2)ccc1F` [Example 344, (E)-N-((2-chloropyridin-4-yl)methyl)-2-(3-(3-cyano-4-fluorophenyl)allyl)-7-(trifluoromethoxy)-1,2,3,4-tetrahydro-5H-pyrido[4,3-b]indole-5-carboxamide] the same measures were 10 µM, 0.5 µM and 100%.
On the same counts, the results for `O=C(NCc1ccnc(Cl)c1)n1c2c(c3ccc(OC(F)(F)F)cc31)CN(C/C=C/c1ccc(F)c(F)c1)CC2` [Example 349, (E)-N-((2-chloropyridin-4-yl)methyl)-2-(3-(3,4-difluorophenyl)allyl)-7-(trifluoromethoxy)-1,2,3,4-tetrahydro-5H-pyrido[4,3-b]indole-5-carboxamide] are 10 µM, 1 µM and 99%.
With `O=C(NCc1ccnc(Cl)c1)n1c2c(c3ccc(OC(F)(F)F)cc31)CN(C/C=C/c1ccc(F)cc1)CC2` [Example 356, (E)-N-((2-chloropyridin-4-yl)methyl)-2-(3-(4-fluorophenyl)allyl)-7-(trifluoromethoxy)-1,2,3,4-tetrahydro-5H-pyrido[4,3-b]indole-5-carboxamide], the minimal effective concentration was 3.8 µM with D. immitis microfilariae and 0.6 µM in the assay with Haemonchus contortus L3. Also, the inhibition in vivo at 10 mg/kg in assay [1] came out at 100%.
